Where a name gives a salt, the structure may show the parent alone.
Columns and labels:
[1] = system: Human gingival fibroblasts (HGF); type: cell-based; conditions: MTT, 48 h
Description: Human gingival fibroblasts (HGF) in logarithmic growth active phase were selected and inoculated in 96-well plates. […] Different concentration gradients were set for each group, and 5 parallel samples were set for each concentration Untreated cells were set as blank control group. After incubation for 48 h, the old culture medium was removed, and 100 μL fresh medium containing 10% (v/v) MTT was added to each well. After incubation for another 2 h, the culture media was removed and 150 μL dimethyl sulfoxide/well was added. After shaking for 2 min, the absorbance of the solution was measured at 490 nm by using a microplate reader Varioscan Flash and cell viability was calculated.
Untreated cells were set as blank control group. After 48 h of culture, the old culture medium was removed, and 100 μL of culture medium containing 10% (v/v) MTT was added to each well. After incubation for 2 h, 150 μL DMSO was added to each well, and the absorbance at 490 nm was measured with a microplate reader for 2 min, and the cell survival rate was calculated.

SW480 cells [2] = test: Determination of superoxide anion in mitochondria; type: cell-based, human; conditions: SW480, 1 mM, incubation 4 h, laser confocal
Description: Determination of superoxide anion (O2^+) in mitochondria: SW480 cells in logarithmic growth active phase were prepared into cell suspension and added into 6-well plate (5×10^5 cells/well). […] After incubation for 4 h, the old culture medium was removed and 1 mL of fluorescent amine dye (50 μM) was added. After incubation for 2 h, cysteine was added to make the final concentration to be 200 μM. After incubation for 0.5 h, culture medium was removed and cells were washed with Krebs buffer for 3 times, then mitochondrial red dye was added to proceed mitochondrial staining for 30 min, and cells were washed with 37°C. medium for 3 times. Finally, the emission of fluorescent amine at 440-480 nm was detected by laser confocal to quantify […], and the emission of mitochondrial red dye at 590-650 nm was detected to locate mitochondria in cells.
Determination of superoxide anion (O2^+) in mitochondria: SW480 cells in logarithmic growth active phase were prepared into cell suspension and added into 6-well plate (5×10^5 cells/well). […] Finally, the emission of fluorescent amine at 440-480 nm was detected by laser confocal to quantify O2^+, and the emission of mitochondrial red dye at 590-650 nm was detected to locate mitochondria in cells.

SW480 cells [3] = test: Determination of mitochondrial membrane potential (JC-1); type: cell-based, human; conditions: SW480, 1 mM, incubation 24 h, JC-1, flow cytometry
Description: Determination of mitochondrial membrane potential: SW480 cells in logarithmic growth active phase were prepared into cell suspension and added into 6-well plate (5×10^5 cells/well). […] After incubation for 24 h, the old culture medium was removed, and the cells of each group were collected and centrifuged to obtain pure cells. 1 mL working solution of mitochondrial membrane potential detection kit (JC-1) was added to the collected cells, and then they were mixed thoroughly and incubated for 20 min. Then the mixture was centrifuged at 4°C. to remove working solution, and the cells were washed twice with JC-1 staining buffer (1×) on ice. Finally, 500 μL staining buffer was added to disperse the cells to obtain a cell suspension, and the change of mitochondrial membrane potential was detected by flow cytometry.
Determination of mitochondrial membrane potential: SW480 cells in logarithmic growth active phase were prepared into cell suspension and added into 6-well plate (5×10^5 cells/well). After incubation for 24 h, cells were treated with 1 mM hydroxyurea, 1 mM cLAVs and 1 mM nano-drug XI, respectively, and ntreated cells were set as blank control group. […] Finally, 500 μL staining buffer was added to disperse the cells to obtain a cell suspension, and the change of mitochondrial membrane potential was detected by flow cytometry.

Caspase-3 = test: Determination of Caspase-3 activity; type: cell-based, human; conditions: SW480, 1 mM, incubation 24 h, relative to blank control
Description: Determination of Caspase-3 activity: SW480 cells in logarithmic growth active phase were prepared into cell suspension and added into 6-well plate (4×10^5 cells/well). […] After incubation for 24 h, the old culture medium was removed and cells were collected and then centrifuged for 5 min (1200 rpm/min) at 4°C. The cells were washed with cold PBS twice, and the supernatant was sucked up as much as possible every time. 100 μL of cell lysate containing 1 mM phenylmethylsulfonyl fluoride (PMSF, protease inhibitor) was added to the collected cells, which were placed on ice for 30 min and vortex once every 5 min. […] 20 μL supernatant was taken for detection with Caspase-3 activity detection kit, and the absorbance value at A405 nm or A400 was measured by microplate reader. According to the absorbance ratio of material group cells to blank control group cells, the relative Caspase-3 activity degree was calculated.
Determination of Caspase-3 activity: SW480 cells in logarithmic growth active phase were prepared into cell suspension and added into 6-well plate (5×10^5 cells/well). […] 20 μL supernatant was taken for detection with Caspase-3 activity detection kit, and the absorbance value at A405 nm or A400 nm was measured by microplate reader. According to the absorbance ratio of material group cells to blank control group cells, the relative Caspase-3 activity degree was calculated.

SW480 cells [4] = test: Determination of cytochrome C release (western blot); type: cell-based, human; conditions: SW480, 1 mM, incubation 24 h
Description: Determination of cytochrome C release: SW480 cells in logarithmic growth active phase were prepared into cell suspension and added into 6-well plate (5×10^5 cells/well). […] After incubation for 24 h, the old culture medium was removed and cells were collected. The collected cells were centrifuged (1200 rpm/min) for 5 min at 4°C., and the supernatant was removed. The cells were washed with cold PBS twice, and die supernatant was sucked up as much as possible every lime. 100 μL of cell lysate containing 1 mM phenylmethylsulfonyl fluoride (PMSF, protease inhibitor) was added to the collected cells, which were placed on ice for 30 min and vortex once every 5 min. Then the mixture was centrifuged at 12000 rpm at 4°C. for 60 min, and the supernatant was quickly collected in another clean centrifuge tube, 20 μL supernatant was taken to analyze the content of cytochrome C in cytoplasm by western blot.
Determination of cytochrome C release: SW480 cells in logarithmic growth active phase were prepared into cell suspension and added into 6-well plate (5×10^5 cells/well). After incubation for 24 h, cells were treated with […], 1 mM cLAVs and 1 mM nano-drug XI, respectively, and untreated cells were set as blank control group. After incubation for 24 h, the old culture medium was removed and cells were collected. […]

[5] = system: Subcutaneous SW480 xenograft model; test: In vivo antitumor assessment, subcutaneous SW480 xenograft; set-up: species or system BALB/c nude mice; conditions: SW480 xenograft nude mice; LA/cLAVs 10 mg/kg, Hydrea 6 mg/kg; once every 3 days, 8 times
Description: Subcutaneous SW480 xenograft model was established in BALB/c nude mice (about 20 g each) of 4 weeks old.

SMILES | toxicity to normal cells (cell viability) [1] | relative superoxide anion level in mitochondria (SW480 cells [2]) | mitochondrial membrane potential loss (SW480 cells [3]) | relative Caspase-3 activity (Caspase-3) | cytochrome C release into cytoplasm (SW480 cells [4]) | tumor inhibition effect (tumor volume) [5]
COc1cccc2c1C(=O)c1c(O)c3c(c(O)c1C2=O)C[C@@](O)(C(=O)CO)C[C@@H]3O[C@H]1C[C@H](N)[C@H](O)[C@H](C)O1 [DOX.HCl, doxorubicin hydrochloride] | can kill normal cells at very low doses | – | – | – | – | –
Nc1ccn([C@@H]2O[C@H](CO)[C@@H](O)C2(F)F)c(=O)n1 [Gem.HCl, gemcitabine hydrochloride] | can kill normal cells at very low doses | – | – | – | – | –
O=C(O)CCCC[C@@H]1CCSS1 [LA, (R)-(+)-lipoic acid] | – | can induce mitochondria to produce O2^+ | can induce the decrease of mitochondrial membrane potential | can stimute the relative activity of Caspase-3 | – | –
NC(=O)NO [hydroxyurea] | – | can all induce mitochondria to produce O2^+ | can all induce the decrease of mitochondrial membrane potential | can stimulate the relative activity of Caspase-3 | promote the release of cytochrome C from the mitochondria to the cytoplasm | good tumor inhibition effect

— patent publication US20210093607A1, “ANTITUMOR NANO-DRUG” (SICHUAN YUANNING BIOLOGICAL TECHNOLOGY CO., LTD., priority 2018, published 2021)
